Assay results reported in publication PMC8174486, “Synthesis and preliminary structure-activity relationship study of 3-methylquinazolinone derivatives as EGFR inhibitors with enhanced antiproliferative activities against tumour cells” (Journal of Enzyme Inhibition and Medicinal Chemistry, 2021).

Tests used:
[1] = test system: NCI-H1975 cells; experiment: MTT antiproliferative assay, NCI-H1975; format: cell-based; conditions: Homo sapiens, mean ± SD of three replicates
Procedure: (§1) A431 (Human epidermoid carcinoma cell line) cell, A549 (Human non-small cell lung cancer cell line) cell, MCF-7 (Human breast adenocarcinoma cell line) cell, and NCI-H1975 (Human non-small cell lung cancer cell line) cell were purchased from the Shanghai Cell Bank of the Chinese Academy of Sciences. NRK-52E (Normal rat kidney cell line) cell was donated by Guizhou Medical University.
(§2) The IC50 value was determined from a sigmoid dose − response curve using Graph-Pad Prism (GraphPad Software, San Diego, CA).

[2] = test system: A431 cells; experiment: MTT antiproliferative assay, A431; format: cell-based, human; conditions: mean ± SD of three replicates
Procedure: as §1, §2

[3] = test system: A549 cells; experiment: MTT antiproliferative assay, A549; format: cell-based; conditions: Homo sapiens, mean ± SD of three replicates
Procedure: as §1, §2

[4] = Stability in mice plasma (HPLC); format: in vitro ADME; conditions: 37 °C, 60 min
Procedure: HPLC procedures and spectra
A 2.5 mL centrifuge tube was added 300 µL plasma derived from normal […] (7 weeks, male), and 30 µL compound A or compound 4d in ethanol (50 mM). The mixture was incubated at 37 °C for 60 min, and then treated with 300 µL of CH3CN, separated in centrifugation at 30000 rpm for 10 min. The supernatant was treated with the same procedure for another time and analyzed in HPLC using C18 column (4.6 mm x 250 mm) and mobile phase of CH3CN/H2O (90 : 10) with a flow rate of 1.5 mL/min.
Fig. S1 Metabolic stability in plasma of compound A
Fig. S2 Metabolic stability in plasma of compound 4d […]

[5] = test system: MCF-7 cells; experiment: MTT antiproliferative assay, MCF-7; format: cell-based; conditions: Homo sapiens, MCF7, mean ± SD of three replicates
Procedure: as §1, §2

[6] = target: T1, EGFR^wt-TK (Homo sapiens, UniProt P00533); experiment: In vitro EGFR^wt-TK assay (ELISA); format: biochemical; conditions: mean ± SD of three replicates
T1 construct: The recombinant EGFR^wt-TK and Antiphosphotyrosine mouse mAb were purchased from PTM Bio; purchased PTM Bio
Procedure: Enzymatic inhibition of synthesised compounds against wild type EGFR tyrosine kinase was determined with enzyme-linked immunosorbent assays (ELISAs) as our previous methods. The recombinant EGFR^wt-TK and Antiphosphotyrosine mouse mAb were purchased from PTM Bio. The IC50 value was determined from a sigmoid dose − response curve using Graph-Pad Prism (GraphPad Software, San Diego, CA).

[7] = test system: MCF-7 cells; experiment: Cell cycle analysis (flow cytometry); format: cell-based, human; conditions: MCF-7, 5 μM, 48 h
[8] = test system: MCF-7 cells; experiment: Cell apoptosis analysis (Annexin V-FITC/PI flow cytometry); format: cell-based, human; conditions: MCF-7, 5 μM, 48 h

T1 sequence (P00533 25-1210): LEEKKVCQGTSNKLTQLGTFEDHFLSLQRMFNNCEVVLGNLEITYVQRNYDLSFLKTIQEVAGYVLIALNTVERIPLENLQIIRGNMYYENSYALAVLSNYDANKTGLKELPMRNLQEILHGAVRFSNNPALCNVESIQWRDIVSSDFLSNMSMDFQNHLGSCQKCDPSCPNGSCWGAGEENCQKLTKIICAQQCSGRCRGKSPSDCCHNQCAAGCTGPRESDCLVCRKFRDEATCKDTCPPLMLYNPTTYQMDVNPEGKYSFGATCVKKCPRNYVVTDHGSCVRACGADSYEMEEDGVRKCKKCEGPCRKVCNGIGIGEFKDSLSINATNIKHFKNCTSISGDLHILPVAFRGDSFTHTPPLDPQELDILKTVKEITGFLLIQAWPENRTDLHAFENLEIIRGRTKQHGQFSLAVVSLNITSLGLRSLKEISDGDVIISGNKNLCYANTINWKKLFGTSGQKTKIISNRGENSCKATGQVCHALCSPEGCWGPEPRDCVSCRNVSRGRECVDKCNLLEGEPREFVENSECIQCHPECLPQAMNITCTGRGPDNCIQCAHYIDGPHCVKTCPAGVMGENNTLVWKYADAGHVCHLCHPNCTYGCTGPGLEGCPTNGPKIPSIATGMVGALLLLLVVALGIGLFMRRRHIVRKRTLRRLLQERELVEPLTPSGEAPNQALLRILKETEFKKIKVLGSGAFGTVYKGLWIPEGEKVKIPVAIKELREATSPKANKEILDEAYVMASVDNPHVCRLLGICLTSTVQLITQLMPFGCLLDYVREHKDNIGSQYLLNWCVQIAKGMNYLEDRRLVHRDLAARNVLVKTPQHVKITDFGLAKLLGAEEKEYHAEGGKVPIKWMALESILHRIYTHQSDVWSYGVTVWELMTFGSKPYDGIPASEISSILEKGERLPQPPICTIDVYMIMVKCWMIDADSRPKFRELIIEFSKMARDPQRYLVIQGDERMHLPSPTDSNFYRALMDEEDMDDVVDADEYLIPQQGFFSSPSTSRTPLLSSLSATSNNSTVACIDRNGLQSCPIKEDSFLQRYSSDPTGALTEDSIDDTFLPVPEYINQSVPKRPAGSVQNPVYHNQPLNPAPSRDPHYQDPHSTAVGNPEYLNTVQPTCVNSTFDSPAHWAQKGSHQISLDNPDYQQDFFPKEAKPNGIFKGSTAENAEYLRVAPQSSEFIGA

| Compound | IC50 [1] | IC50 ([2]; Homo sapiens, A-431, MTT) | IC50 [3] | stability in mice plasma ([4]; SD mice plasma) | IC50 [5] | melting point | IC50 [6] | purity after incubation with mice plasma ([4]; Sprague Dawley (SD) mice plasma) | IC50 ([2]; MTT) | percentage of cells in G2/M [7] | ratio of apoptotic cells (late) [8] |
| --- | --- | --- | --- | --- | --- | --- | --- | --- | --- | --- | --- |
| Cn1c(COc2ccc(/C=N/c3cccc(F)c3)cc2)nc2ccccc2c1=O [A, reference compound] | 19.2 ± 3.02 µM | 17.7 ± 2.08 µM | 17.9 ± 2.11 µM | not stable | 14.1 ± 1.85 µM |  |  |  |  |  |  |
| Cn1c(COc2ccc(C(=O)Nc3cccc(F)c3)cc2)nc2ccccc2c1=O [Compound 4b, N-(3-Fluorophenyl)-4-((3-methyl-4-oxo-3,4-dihydroquinazolin-2-yl)methoxy)benzamide] | 12.9 ± 1.44 µM | 8.72 ± 0.46 µM | 9.08 ± 0.69 µM |  | 9.64 ± 0.88 µM | 196 to 197 °C | 1.63 ± 0.15 µM |  |  |  |  |
| Cn1c(COc2ccc(/C=C/C(=O)c3cccc(F)c3)cc2)nc2ccccc2c1=O [Compound 4a, (E)-2-((4–(3-(3-Fluorophenyl)-3-oxoprop-1-enyl)phenoxy)methyl)-3-methylquinazolin-4(3H)-one] | 13.7 ± 1.61 µM | 9.32 ± 0.57 µM | 8.63 ± 0.41 µM |  | 10.6 ± 1.03 µM | 208 to 209 °C | 2.71 ± 0.22 µM |  |  |  |  |
| Cn1c(COc2ccc(/C=C/c3cccc(F)c3)cc2)nc2ccccc2c1=O [Compound 4c, (E)-2-((4-(3-Fluorostyryl)phenoxy)methyl)-3-methylquinazolin-4(3H)-one] | 6.44 ± 0.85 µM | 6.79 ± 0.72 µM | 4.26 ± 0.57 µM |  | 6.04 ± 0.73 µM | 160 to 162 °C | 0.2 ± 0.041 µM |  |  |  |  |
| COc1cc2ncnc(Nc3ccc(F)c(Cl)c3)c2cc1OCCCN1CCOCC1 [Gefitinib, reference compound] |  |  |  |  |  |  |  |  |  | 11.58% |  |

More lines, main results first:

| IC50 [1] | IC50 ([2]; Homo sapiens, A-431, MTT) | IC50 [3] | stability in mice plasma ([4]; SD mice plasma) | IC50 [5] | melting point | IC50 [6] | purity after incubation with mice plasma ([4]; Sprague Dawley (SD) mice plasma) | IC50 ([2]; MTT) | Compound | percentage of cells in G2/M [7] | ratio of apoptotic cells (late) [8] |
| --- | --- | --- | --- | --- | --- | --- | --- | --- | --- | --- | --- |
| 6.42 ± 0.47 µM | 3.48 ± 0.49 µM | 2.55 ± 0.26 µM |  | 0.87 ± 0.14 µM | 228 to 229 °C | 0.053 ± 0.008 µM | higher than 98% |  | Cn1c(COc2ccc(NC(=O)c3cccc(F)c3)cc2)nc2ccccc2c1=O [Compound 4d, 3-Fluoro-N-(4-((3-methyl-4-oxo-3,4-dihydroquinazolin-2-yl)methoxy)phenyl)benzamide] | 10.38% | 41.36% |
| 9.33 ± 0.78 µM | 8.76 ± 0.74 µM | 8.46 ± 0.67 µM |  | 2.84 ± 0.22 µM | 235 to 236 °C | 0.38 ± 0.075 µM |  |  | Cn1c(COc2ccc(NC(=O)/C=C/c3ccc(F)c(F)c3)cc2)nc2ccccc2c1=O [Compound 4f, (E)-3-(3,4-Difluorophenyl)-N-(4-((3-methyl-4-oxo-3,4-dihydroquinazolin-2-yl)methoxy)phenyl)acrylamide] |  |  |
| 7.18 ± 0.49 µM | 3.53 ± 0.34 µM | 2.69 ± 0.32 µM |  | 0.96 ± 0.21 µM | 248 to 249 °C | 0.061 ± 0.007 µM |  |  | Cn1c(COc2ccc(NC(=O)c3ccc(F)c(F)c3)cc2)nc2ccccc2c1=O [Compound 4e, 3,4-Difluoro-N-(4-((3-methyl-4-oxo-3,4-dihydroquinazolin-2-yl)methoxy)phenyl)benzamide] |  |  |
| 10.2 ± 1.03 µM | 8.34 µM | 7.31 ± 0.59 µM |  | 10.7 ± 2.07 µM | 195 to 196 °C | 0.71 ± 0.093 µM |  | 8.35 ± 0.46 µM | Cn1c(COc2ccc(NC(=O)Nc3cccc(F)c3)cc2)nc2ccccc2c1=O [Compound 4g, 1-(3-Fluorophenyl)-3-(4-((3-methyl-4-oxo-3,4-dihydroquinazolin-2-yl)methoxy)phenyl)urea] |  |  |
